Results published in article PMC11637483, “Dissecting caspase-2-mediated cell death: from intrinsic PIDDosome activation to chemical modulation” (Protein & Cell, 2024).
“And” between values parts separate entries of the source, which are not always exact repeats. Identical values can stand only once.

Experiments:
[1] = target: T1, MBP-CASP2(32–165), human caspase-2 pro-domain (Homo sapiens, UniProt P42575); test: MicroScale Thermophoresis binding to MBP-fused caspase-2 pro-domain; conditions: MST, 25°C, PBST buffer; means ± s.d. from two determinations; read-out: KD (binding constant)
T1 construct: cDNAs encoding BID and caspase-2 pro-domain (residues 32–165) were constructed into modified pET vectors; made in house; host or cells: E. coli BL21 (DE3)
T1 sequence (P42575 32-165): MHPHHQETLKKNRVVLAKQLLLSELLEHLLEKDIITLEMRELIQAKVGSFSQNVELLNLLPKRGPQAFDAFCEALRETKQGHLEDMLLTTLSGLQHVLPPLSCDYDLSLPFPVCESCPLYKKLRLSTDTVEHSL
Text: The above results prompted us to reason whether HUHS015-36 could directly target caspase-2 for activation without the requirement of any other mediator. To directly test this hypothesis, we tried to obtain purified caspase-2 protein. The preparation of full-length caspase-2 protein is known to be technically challenging. Meanwhile, the CARD domain of a caspase often plays the role in sensing upstream signals, as exemplified by the CARD of caspase-2 that is recruited by RAIDD through the CARD–CARD interaction for assembling the PIDDosome. […]
Figure 4. […] (A) The direct binding between HUHS015-36 and MBP-fused human caspase-2 pro-domain was detected by microscale thermophoresis (MST). […] The calculated dissociation constant (KD) is expressed as means ± s.d. from two determinations. […] ATP-based cell viability in panels (C–E) is expressed as mean ± s.d. from three technical replicates. […] TEXT PRINTED IN THE PICTURE: (A) HUHS015-36: MBP-CASP2(32–165) vs. HUHS015-36: KD (μmol/L): 22.05 ± 6.151; MBP vs. HUHS015-36: KD (μmol/L): Not detected
MicroScale thermophoresis (MST) experiments were carried out at 25°C in the PBST Buffer (PBS with 0.05%, v/v Tween 20) by using a Monolith 2020 (TNG) (MM-208). […] The temperature-induced changes in fluorescence intensity of each sample in the capillary thermophoresis tubes were recorded by the Monolith instrument. […]

Jurkat cells = test: Cell death and caspase-2 processing in Jurkat cells (endogenous caspase-2); format: cell-based, human; conditions: 8 h
Text: We further examined whether HUHS015-derived compounds could activate endogenous caspase-2 in human cells. […] Complementing the CASP2^−/− Jurkat cells with exogenous caspase-2 restored HUHS015-36-induced apoptosis, in which caspase-2 was expectedly processed (Fig. 5A and 5B). We also profiled caspase-2 expression in a panel of 10 mouse tumor cell lines and observed highly variable expression levels (Fig. 5C). […] In B16-F10 (melanoma), LLC1 (Lewis lung carcinoma), MB49 (bladder carcinoma), KPC (pancreatic ductal adenocarcinoma), and 4T1 (mammary carcinoma) cells, caspase-2 was expressed at much lower levels (Fig. 5C). In contrast, EMT6 (mammary carcinoma), EL4 (T lymphoblast), and Hepa1-6 (hepatoma) feature robust caspase-2 expression, much higher than in Jurkat cells (Fig. 5C).
Figure 5. HUHS015-36 activates endogenous caspase-2 to induce apoptosis in Jurkat cells but not mouse cells. […] Lysates of 10 mouse cancer cell lines were analyzed by immunoblotting using indicated antibodies. […] ATP cell viability (A and D) is expressed as mean ± s.d. from three technical replicates. […]
Cell viability was measured by the ATP assay using the CellTiter-Glo® Luminescent Cell Viability Assay kit (Promega).
To stimulate caspase-2 activation, PIDD1-CC controlled by a Tet-On inducible system was introduced into indicated cells. […] Cell lysates were analyzed by standard immunoblotting.

## Cc1cccc2nc(-n3nc4c(c3O)CCCC4)[nH]c12 [HUHS015-36]
[1]
  Kd: ~22 µM and 22.1 µM
Jurkat cells; CASP2 knockout Jurkat cells
  caspase-2 processing and cell death: completely diminished
Jurkat cells; WT Jurkat cells
  caspase-2 processing and cell death: induced evident caspase-2 processing and cell death
